# Data as given in patent publication US20250034153A1, “TRIAZOLOPYRIMIDINES AS A2A / A2B INHIBITORS” (Incyte Corporation, priority 2019, published 2025).
# Legend:
# [1] = biological target: Adenosine A2A (Homo sapiens (Human), UniProt P29274); test: A2A Tag-lite HTRF assay (Example C); conditions: Tag-lite Adenosine A2A labeled cells, Red antagonist fluorescent ligand 12.5 nM, one-site competitive binding; read-out: A2A_Ki
# Description: Example C. A2A Tag-Lite® HTRF Assay
# Assays were conducted in black low volume 384-well polystyrene plates (Greiner 784076-25) in a final volume of 10 μL. Test compounds were first serially diluted in DMSO and 100 nl added to the plate wells before the addition of other reaction components. The final concentration of DMSO was 1%. Tag-lite® Adenosine A2A labeled cells (CisBio C1TT1A2A) were diluted 1:5 into Tag-lite buffer (CisBio LABMED) and spun 1200 g for 5 mins. The pellet was resuspended at a volume 10.4× the initial cell suspension volume in Tag-lite buffer, and Adenosine A2A Receptor Red antagonist fluorescent ligand (CisBio L0058RED) added at 12.5 nM final concentration. 10 ul of the cell and ligand mix was added to the assay wells and incubated at room temperature for 45 minutes before reading on a PHERAstar FS plate reader (BMG Labtech) with HTRF 337/620/665 optical module. Percent binding of the fluorescent ligand was calculated; where 100 nM of A2A antagonist control ZM 241385 (Tocris 1036) displaces the ligand 100% and 1% DMSO has 0% displacement. The % binding data versus the log of the inhibitor concentration was fitted to a one-site competitive binding model (GraphPad Prism version 7.02) where the ligand constant=12.5 nM and the ligand Kd=1.85 nM.
# [2] = biological target: human adenosine A2B receptor (Homo sapiens (Human), UniProt P29275); test: Adenosine A2B receptor cyclic AMP GS assay (Example B); format: cell-based; conditions: HEK-293 cells expressing human A2B, agonist NECA 12 nM, cAMP accumulation (FRET); read-out: A2B_cAMP_EC50
# Sequence of human adenosine A2B receptor (P29275 whole entry): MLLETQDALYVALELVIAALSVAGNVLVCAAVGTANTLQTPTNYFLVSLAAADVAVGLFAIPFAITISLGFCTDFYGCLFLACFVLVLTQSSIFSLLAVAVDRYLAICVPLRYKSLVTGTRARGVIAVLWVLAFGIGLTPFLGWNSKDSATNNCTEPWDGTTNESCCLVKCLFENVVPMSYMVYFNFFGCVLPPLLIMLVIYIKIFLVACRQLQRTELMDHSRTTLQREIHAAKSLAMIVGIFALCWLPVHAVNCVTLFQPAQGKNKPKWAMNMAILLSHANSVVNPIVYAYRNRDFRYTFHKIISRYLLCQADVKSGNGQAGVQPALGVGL
# Description: Example B. Adenosine A2B Receptor Cyclic AMP GS Assay
# Stably transfected HEK-293 cells expressing the human adenosine A2B receptor (Perkin Elmer) were maintained in MEM culture medium with 10% FBS and 100 μg/ml Geneticin (Life Technologies). 18 to 24 hours prior to assay, geneticin was removed from culture. The cisbio cAMP-GS Dynamic kit utilizing the FRET (Fluorescence Resonance Energy Transfer) technology was used to measure cAMP accumulation in the cells. Compounds of the present disclosure at an appropriate concentration were mixed with 10000 cells/well in white 96 well half area plates (Perkin Elmer) for 30 min at RT gently shaking. Agonist, NECA (R&D Technologies) at 12 nM was added to each well for 60 min at RT gently shaking. Detection reagents, d2-labeled cAMP (acceptor) and anti-cAMP cryptate (donor) were added to each well for 60 min at RT gently shaking. Plates were read on Pherastar (BMG Labtech), fluorescence ratio 665/620 was calculated and EC50 determination was performed by fitting the curve of percent of control versus the log of the compound concentration using GraphPad Prism.
# Sequence of Adenosine A2A (P29274 whole entry): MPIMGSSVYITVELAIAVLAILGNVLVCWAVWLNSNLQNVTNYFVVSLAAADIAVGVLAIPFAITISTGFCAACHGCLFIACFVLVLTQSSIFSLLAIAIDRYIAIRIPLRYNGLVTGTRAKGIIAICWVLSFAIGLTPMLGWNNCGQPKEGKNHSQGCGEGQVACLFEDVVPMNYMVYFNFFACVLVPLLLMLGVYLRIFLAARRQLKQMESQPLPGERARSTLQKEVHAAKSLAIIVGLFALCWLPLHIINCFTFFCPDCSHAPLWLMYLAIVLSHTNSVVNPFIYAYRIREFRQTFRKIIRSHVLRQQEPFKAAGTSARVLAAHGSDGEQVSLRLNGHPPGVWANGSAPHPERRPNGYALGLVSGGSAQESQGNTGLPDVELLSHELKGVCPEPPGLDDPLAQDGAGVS
Structure (SMILES),Ki [1] [nM],EC50 [2] [nM]
"Cc1cccnc1CNc1nc2c(-c3ccc(=O)n(C)c3)c(-c3cccc(C#N)c3F)nc(N)n2n1 [Example 23, 3-(5-amino-8-(1-methyl-6-oxo-1,6-dihydropyridin-3-yl)-2-(((3-methylpyridin-2-yl)methyl)amino)-[1,2,4]triazolo[1,5-c]pyrimidin-7-yl)-2-fluorobenzonitrile]",≤ 10,10 to 100
"CCn1cc(-c2c(-c3cccc(C#N)c3F)nc(N)n3nc(NCc4ncccc4C)nc23)ccc1=O [Example 24, 3-(5-amino-8-(1-ethyl-6-oxo-1,6-dihydropyridin-3-yl)-2-(((3-methylpyridin-2-yl)methyl)amino)-[1,2,4]triazolo[1,5-c]pyrimidin-7-yl)-2-fluorobenzonitrile]",≤ 10,10 to 100
"COc1cc(-c2c(-c3cccc(C#N)c3F)nc(N)n3nc(NCc4ncccc4C)nc23)cc(C)n1 [Example 26, 3-(5-amino-8-(2-methoxy-6-methylpyridin-4-yl)-2-(((3-methylpyridin-2-yl)methyl)amino)-[1,2,4]triazolo[1,5-c]pyrimidin-7-yl)-2-fluorobenzonitrile]",≤ 10,10 to 100
"N#Cc1cccc(-c2nc(N)n3nc(OCc4ncccc4F)nc3c2-c2ccncn2)c1 [Example 28, 3-(5-amino-2-((3-fluoropyridin-2-yl)methoxy)-8-(pyrimidin-4-yl)-[1,2,4]triazolo[1,5-c]pyrimidin-7-yl)benzonitrile]",≤ 10,≤ 10
"Cc1cc(-c2c(-c3cccc(C#N)c3)nc(N)n3nc(OCc4ncccc4F)nc23)cc(C)n1 [Example 32, 3-(5-amino-8-(2,6-dimethylpyridin-4-yl)-2-((3-fluoropyridin-2-yl)methoxy)-[1,2,4]triazolo[1,5-c]pyrimidin-7-yl)benzonitrile]",≤ 10,10 to 100
"COc1cc(-c2c(-c3cccc(C#N)c3)nc(N)n3nc(OCc4ncccc4F)nc23)cc(C)n1 [Example 33, 3-(5-amino-2-((3-fluoropyridin-2-yl)methoxy)-8-(2-methoxy-6-methylpyridin-4-yl)-[1,2,4]triazolo[1,5-c]pyrimidin-7-yl)benzonitrile]",≤ 10,≤ 10
"N#Cc1cccc(-c2nc(N)n3nc(Nc4ccccn4)nc3c2-c2ccncn2)c1 [Example 34, 3-(5-amino-2-(pyridin-2-ylamino)-8-(pyrimidin-4-yl)-[1,2,4]triazolo[1,5-c]pyrimidin-7-yl)benzonitrile]",≤ 10,≤ 10
"Cc1cccc(Nc2nc3c(-c4ccncn4)c(-c4cccc(C#N)c4)nc(N)n3n2)n1 [Example 40, 3-(5-amino-2-((6-methylpyridin-2-yl)amino)-8-(pyrimidin-4-yl)-[1,2,4]triazolo[1,5-c]pyrimidin-7-yl)benzonitrile]",≤ 10,≤ 10
"N#Cc1cccc(-c2nc(N)n3nc(Cn4nnc(-c5ccccn5)n4)nc3c2-c2ccncn2)c1 [Example 50, 3-(5-amino-2-((5-(pyridin-2-yl)-2H-tetrazol-2-yl)methyl)-8-(pyrimidin-4-yl)-[1,2,4]triazolo[1,5-c]pyrimidin-7-yl)benzonitrile]",≤ 10,≤ 10
"N#Cc1cccc(-c2nc(N)n3nc(Cn4nnnc4-c4ncccn4)nc3c2-c2ccncn2)c1 [Example 51, 3-(5-amino-2-((5-(pyrimidin-2-yl)-1H-tetrazol-1-yl)methyl)-8-(pyrimidin-4-yl)-[1,2,4]triazolo[1,5-c]pyrimidin-7-yl)benzonitrile]",≤ 10,≤ 10
"N#Cc1cccc(-c2nc(N)n3nc(Cn4nnnc4-c4ccncn4)nc3c2-c2ccncn2)c1 [Example 52, 3-(5-amino-8-(pyrimidin-4-yl)-2-((5-(pyrimidin-4-yl)-1H-tetrazol-1-yl)methyl)-[1,2,4]triazolo[1,5-c]pyrimidin-7-yl)benzonitrile]",≤ 10,≤ 10

# Results, then the compound that gave them:
Ki [1] [nM],EC50 [2] [nM],Structure (SMILES)
≤ 10,≤ 10,"Cc1cccnc1CNc1nc2c(-c3ccc(=O)n(C)n3)c(-c3cccc(C#N)c3F)nc(N)n2n1 [Example 25, 3-(5-amino-8-(1-methyl-6-oxo-1,6-dihydropyridazin-3-yl)-2-(((3-methylpyridin-2-yl)methyl)amino)-[1,2,4]triazolo[1,5-c]pyrimidin-7-yl)-2-fluorobenzonitrile]"
≤ 10,≤ 10,"Cn1nc(-c2c(-c3cccc(C#N)c3)nc(N)n3nc(Cc4ccccn4)nc23)ccc1=O [Example 27, 3-(5-amino-8-(1-methyl-6-oxo-1,6-dihydropyridazin-3-yl)-2-(pyridin-2-ylmethyl)-[1,2,4]triazolo[1,5-c]pyrimidin-7-yl)benzonitrile]"
≤ 10,≤ 10,"Cn1cc(-c2c(-c3cccc(C#N)c3)nc(N)n3nc(OCc4ncccc4F)nc23)ccc1=O [Example 29, 3-(5-amino-2-((3-fluoropyridin-2-yl)methoxy)-8-(1-methyl-6-oxo-1,6-dihydropyridin-3-yl)-[1,2,4]triazolo[1,5-c]pyrimidin-7-yl)benzonitrile]"
≤ 10,≤ 10,"Cn1nc(-c2c(-c3cccc(C#N)c3)nc(N)n3nc(OCc4ncccc4F)nc23)ccc1=O [Example 30, 3-(5-amino-2-((3-fluoropyridin-2-yl)methoxy)-8-(1-methyl-6-oxo-1,6-dihydropyridazin-3-yl)-[1,2,4]triazolo[1,5-c]pyrimidin-7-yl)benzonitrile]"
≤ 10,≤ 10,"N#Cc1cccc(-c2nc(N)n3nc(COc4ccccn4)nc3c2-c2ccncn2)c1 [Example 41, 3-(5-amino-2-((pyridin-2-yloxy)methyl)-8-(pyrimidin-4-yl)-[1,2,4]triazolo[1,5-c]pyrimidin-7-yl)benzonitrile]"
≤ 10,≤ 10,"N#Cc1cccc(-c2nc(N)n3nc(COc4ncccc4C#N)nc3c2-c2ccncn2)c1 [Example 42, 2-((5-amino-7-(3-cyanophenyl)-8-(pyrimidin-4-yl)-[1,2,4]triazolo[1,5-c]pyrimidin-2-yl)methoxy)nicotinonitrile]"
≤ 10,≤ 10,"Cn1cc(-c2c(-c3cccc(C#N)c3)nc(N)n3nc(COc4ncccc4C#N)nc23)ccc1=O [Example 43, 2-((5-amino-7-(3-cyanophenyl)-8-(1-methyl-6-oxo-1,6-dihydropyridin-3-yl)-[1,2,4]triazolo[1,5-c]pyrimidin-2-yl)methoxy)nicotinonitrile]"
≤ 10,10 to 100,"Cn1nc(-c2c(-c3cccc(C#N)c3)nc(N)n3nc(COc4ncccc4C#N)nc23)ccc1=O [Example 44, 2-((5-amino-7-(3-cyanophenyl)-8-(1-methyl-6-oxo-1,6-dihydropyridazin-3-yl)-[1,2,4]triazolo[1,5-c]pyrimidin-2-yl)methoxy)nicotinonitrile]"
≤ 10,100 to 1000,"Cc1cc(-c2c(-c3cccc(C#N)c3)nc(N)n3nc(COc4ncccc4C#N)nc23)cc(C)n1 [Example 46, 2-((5-amino-7-(3-cyanophenyl)-8-(2,6-dimethylpyridin-4-yl)-[1,2,4]triazolo[1,5-c]pyrimidin-2-yl)methoxy)nicotinonitrile]"
≤ 10,10 to 100,"COc1cc(-c2c(-c3cccc(C#N)c3)nc(N)n3nc(COc4ncccc4C#N)nc23)cc(C)n1 [Example 47, 2-((5-amino-7-(3-cyanophenyl)-8-(2-methoxy-6-methylpyridin-4-yl)-[1,2,4]triazolo[1,5-c]pyrimidin-2-yl)methoxy)nicotinonitrile]"
